How the values were obtained:
[1] = tested on: whole knee joints of Has1KO mice with patellar groove cartilage injury; test: Whole joint gene expression (TAQMAN qPCR, RT2 Profiler NF-κB and Fibrosis arrays) after cartilage injury; format: in vivo
Experimental: (§1) Under approved IACUC protocols, a confined non-bleeding cartilage injury was created in the patellar groove of the right legs of 12-wk old male WT and Has1KO (C57Bl6) mice. Pirfenidone was provided in the chow (5 mg/g, Harlan) starting 3 days after surgery, and mice ingested about 600 mg pirfenidone/kg body weight daily. Joint tissue pathology was evaluated by photography of joint tissue surfaces after India Ink application (FIG. 1) and by histology of the intact joint with Safranin-O and Masson's Trichrome stained sections (FIG. 2.) For gene expression studies, skin and muscle was removed and whole knee joints were stored in RNALater. Inventoried TAQMAN® probes for Gapdh, Has2, Tnfaip6, Col1a1, Col3a1 and Vcan V2 were used to measure expression at 0, 7, 14, and 28 days post-injury, and Qiagen RT2 Profiler PCR Assay mouse arrays for NF-κB (PAMM-225ZA) and Fibrosis (PAMM-120ZA) pathways were used to assay whole joints at 21-28 days after injury, with and without pirfenidone treatment. Relative mRNA abundance was calculated as 1000×2−ΔCt, with ΔCt defined as Ct of the gene of interest minus Ct of Gapdh. Fold change was defined as abundance at a time point divided by abundance in the naïve condition for the same genotype.

[2] = tested on: Has1KO mice with patellar groove cartilage injury; test: Joint tissue pathology by histology (Safranin-O, Masson's Trichrome) after cartilage injury; format: in vivo
Experimental: as §1
In the same way, the effects on expression of pro-inflammatory and pro-fibrotic genes were accompanied by profound effects on tissue pathology. A histologic examination of sagittal sections across the entire joint was done on 3 mice from each group.

injured Has1KO joints = test: Micro-computed Tomography of bone structure after cartilage injury; format: in vivo, mice; details: femur posterior to trochlear groove, day 28
Text: The effect of pirfenidone administration on bone structure was examined using Micro-computed Tomography (micro-CT) to identify bone differences (FIG. 7). The regions of interest examined included the trabecular bone in the femur directly posterior to the trochlear groove, where the defect was created (FIG. 8) and the cortical bone of the femoral midshaft (FIG. 9.) The trabecular bone parameters, obtained using micro-CT, indicate a recovery in injured Has1KO joints of bone-to-total volume, connectivity density, trabecular number, trabecular thickness, and trabecular separation to naive levels, surpassing even injured WT in bone recovery, and are shown in FIG. 10.

[3] = 24 day drug treatment post injury
[4] = sagittal sections across entire joint, 3 mice per group

Cc1ccc(=O)n(-c2ccccc2)c1 [pirfenidone, 5-methyl-1-phenylpyridin-2-one]
activation of anti-apoptotic, anti-fibrotic and matrix remodeling genes (Sod2, Ccl12, Il13ra2, Serpine1, Timp1) [1, 3]: enhanced
expression of genes in the Nf-κB and Fibrosis pathways (arrays of 84 genes each) [1, 3]: marked effect
expression of genes linked to the aberrant wound healing responses ([1]; pirfenidone in chow 5 mg/g (about 600 mg/kg daily) from 3 days after surgery, whole joint): normalized
Has2 expression (delayed and more prolonged than in WT) ([1]; pirfenidone in chow, whole joint): normalized
Tnfaip6 expression (enhanced at 2 weeks in Has1KO) ([1]; pirfenidone in chow, whole joint, 2 weeks): normalized
Vcan V2 expression (markedly inhibited in Has1KO) ([1]; pirfenidone in chow, whole joint, 7 days): inhibition was corrected
loss of cartilage and subchondral bone in the joint after cartilage injury ([2]; Has1KO, 4 weeks post-injury, Safranin-O stained): reduces
Safranin-O staining in the cartilages (including growth plates) [2, 4]: marked enhancement
appearance of fibrotic tissues [2, 4]: blocked
trabecular bone parameters (bone-to-total volume, connectivity density, trabecular number, thickness, separation) (injured Has1KO joints): recovery

Reference: patent US20170266168A1, “METHODS FOR PREVENTING OR TREATING OSTEOARTHRITIS” (RUSH UNIVERSITY MEDICAL CENTER, priority 2014, published 2017)
